# From patent publication US8697628B2, “Methods of using AMPD2 inhibitors for the treatment of fatty liver, obesity and diabetes” (The Regents of the University of Colorado, a body corporate, priority 2010, dated 2014)
# Columns and labels:
# HepG2 cells [1] = details: with IMP
# AMP deaminase [2] = details: Ki as low as; cited from earlier work
# adenosine deaminase [3] = target: T1, adenosine deaminase (Homo sapiens, UniProt P00813); details: cited from earlier work
# T1 sequence (P00813 1-363): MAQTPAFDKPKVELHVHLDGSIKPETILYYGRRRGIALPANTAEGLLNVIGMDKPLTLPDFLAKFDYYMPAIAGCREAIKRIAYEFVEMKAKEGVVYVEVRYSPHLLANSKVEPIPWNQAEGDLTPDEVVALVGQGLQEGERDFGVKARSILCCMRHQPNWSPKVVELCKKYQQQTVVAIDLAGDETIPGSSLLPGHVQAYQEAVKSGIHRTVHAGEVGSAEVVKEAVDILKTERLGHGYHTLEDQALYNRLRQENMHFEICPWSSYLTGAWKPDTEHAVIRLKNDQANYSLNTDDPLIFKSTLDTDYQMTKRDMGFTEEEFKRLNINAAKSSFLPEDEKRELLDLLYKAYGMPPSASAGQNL
# [4] = system: AMP deaminase in isolated cardiomyoctes; details: isolated cardiomyocytes; cited from earlier work
# [5] = system: purified human cardiac AMP deaminase; details: purified enzyme; cited from earlier work
# [6] = system: fructose induced fatty liver; assay: Fructose induced fatty liver and hypertriglyceridemia in rats; format: in vivo, Male Sprague Dawley rats
# Description: Fructose only and control diet rats also received daily i.p injections of vehicle. At the end of two weeks rats were sacrificed. […] FIG. 12A. […] FIG. 12B.
# [7] = system: AMPD isolated from squirrel liver (AMPD2); assay: AMP deaminase activity by ammonia production; format: biochemical
# Method: AMP deaminase activity was determined by estimating the production of ammonia by a modification of the method described by Chaney and Marbach. See, Chaney et al., Clin Chem., 1962, 8, 130-132; Ito et al., J Biochem., 1988, 103, 259-262; and Sims et al., Neurobiol Aging., 1998, 19, 385-391. Briefly, the reaction mixture consisted of 25 mM sodium citrate, pH 6.0, 50 mM potassium chloride, and different concentration of AMP. The enzyme reaction was initiated by the addition of the enzyme solution and incubated at 37° C. for 15 min. The reaction was stopped with the addition of the phenol/hypochlorite reagents: Reagent A (100 mM phenol and 0.050 g/L sodium nitroprusside in H2O) was added, followed by reagent B (125 mM sodium hydroxide, 200 mM dibasic sodium phosphate, and 0.1% sodium hypochlorite in H2O) and incubated for 30 min at 25° C. The absorbance of the samples was measured at 625 nm with a spectrophotometer. To determine the absolute specific activity of ammonia production (micromoles ammonia/min), a calibration curve was determined in the range of 5 μM to 1 mM of ammonia.
# Using the procedure above, various AMPD2 inhibitors were assayed. […] For this assay AMPD isolated from squirrel liver was used, which only expresses AMPD2 and not the other AMPD isoforms.
# AMP deaminase [8] = details: cited from earlier work
# adenosine deaminase [9] = target: T1, adenosine deaminase; details: cited from earlier work; remark: listed apart in the source
# AMPD2 mRNA = assay: Silencing of AMPD2 with shRNA in HepG2 cells; format: cell-based, human
# Description: An shRNA for AMPD2 was employed to silence human hepatic cells (HepG2). (FIGS. 3 and 4) The silencing vector pSM2-AMPD2 (V2HS—172668, Open Biosystems) incorporates a 22-base shRNAmir trigger designed to mimic a natural microRNA primary transcript. The target sequence is specific for human AMPD2 and has been selected based on thermodynamic criteria for optimal small RNA performance. The specific sequence is 5′-[…]-3′(SEQ ID NO: 1).
# The immortalized human hepatocytes cell line, HepG2, was transfected with the silencing vector pSM2-AMPD2 using Lipofectamine LTX Plus (Invitrogen) as described by the manufacturer (FIG. 4). Briefly, cell cultures were grown to 90-95% confluence in normal growth media and in 24-well plates. Lipid-DNA complexes were prepared as per recommended protocols using growth media without serum. 100 μl of the lipid-DNA solution was added per well of attached cells and incubated for 4 hrs at 37° C. Wells were then diluted with 1.5 ml of normal growth media and incubated for an additional 24 hrs prior to addition of selective media containing 1 μg/mL Puromycin antibiotic. After 7 days, stable transfectants (clones) were selected with glass cloning rings, replated and a second colony selection was performed to provide a clean clone for analysis. Validation of AMPD2 gene knock down was performed by harvesting protein and performing a Western blot for protein expression. Clone #5 was subsequently used for the experiments and was designated as sAMPD2.
# A key enzyme in Beta fatty acid oxidation, enoyl CoA hydratase-1 (ECH-1), was stimulated in control cells as well as fructose treated cells in which AMPD2 had been silenced. The inhibition of AMPD2 by sAMPD2 was accompanied by an upregulation of phosphorylated AMPkinase (Thr172) in both unstimulated and fructose stimulated hepatocytes, whereas total AMPK was not altered.
# The stimulation of fat oxidation in AMPD2 knocked down hepatocytes was confirmed by measuring β hydroxybutyrate, a fat oxidation product (FIG. 5B).
# The stimulation of phosphorylated AMP kinase in human hepatocytes (HepG2 cells) by silencing AMPD2 with shRNA as shown in FIG. 5A led to […] of target genes as noted by Western blot (FIG. 6A). For example, the phosphorylated form of Acetyl CoA Carboxylase (pACC) which is involved in triglyceride synthesis was induced by silencing AMPD2 in both unstimulated and fructose stimulated cells. […] Importantly, these changes blocked the triglyceride accumulation in HepG2 cells in response to fructose (FIG. 6B).
# Silencing AMPD2 prevented the upregulation of KHK in response to fructose.
# HepG2 cells [10] = assay: Fructose-stimulated HepG2 cells treated with metformin or AICAR; format: cell-based, human; details: for rise in intracellular triglycerides in response to fructose: HepG2, fructose 5 mM; for fall in enoyl CoA hydratase-1 (ECH-1) levels (defect in fat oxidation): HepG2, fructose 5 mM for 72 hrs, densitometry of western blot
# AMPD2 = target: T2, AMPD2 (Homo sapiens, UniProt Q01433); assay: AMPD2 regulation by fructose-1-phosphate; format: biochemical; details: FIG. 15
# T2 sequence (Q01433 1-825): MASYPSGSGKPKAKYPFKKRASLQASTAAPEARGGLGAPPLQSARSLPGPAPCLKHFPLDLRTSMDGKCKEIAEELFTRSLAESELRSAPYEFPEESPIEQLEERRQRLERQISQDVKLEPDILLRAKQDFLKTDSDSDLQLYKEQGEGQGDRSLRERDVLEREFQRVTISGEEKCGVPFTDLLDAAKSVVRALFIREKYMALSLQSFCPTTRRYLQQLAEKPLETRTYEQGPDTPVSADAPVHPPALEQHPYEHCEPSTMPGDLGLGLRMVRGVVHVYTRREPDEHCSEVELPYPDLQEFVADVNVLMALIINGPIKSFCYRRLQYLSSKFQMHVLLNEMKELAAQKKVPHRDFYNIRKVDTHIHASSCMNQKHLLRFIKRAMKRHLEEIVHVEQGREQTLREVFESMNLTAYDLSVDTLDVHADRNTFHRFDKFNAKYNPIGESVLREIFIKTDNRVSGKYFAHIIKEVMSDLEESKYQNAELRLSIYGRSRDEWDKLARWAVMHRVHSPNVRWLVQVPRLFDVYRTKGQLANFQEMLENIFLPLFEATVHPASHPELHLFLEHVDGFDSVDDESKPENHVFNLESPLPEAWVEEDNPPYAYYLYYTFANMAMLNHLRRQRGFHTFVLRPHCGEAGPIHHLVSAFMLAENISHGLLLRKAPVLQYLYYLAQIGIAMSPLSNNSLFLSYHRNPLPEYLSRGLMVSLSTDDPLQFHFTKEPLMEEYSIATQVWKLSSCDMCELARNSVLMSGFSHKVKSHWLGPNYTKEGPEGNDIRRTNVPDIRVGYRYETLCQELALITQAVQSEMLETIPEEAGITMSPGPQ
# Description: Fructokinase uses ATP to phosphorylate fructose to fructose-1-phosphate leading to a reduction of ATP and generation of AMP, leading to the activation of AMPD2.
# [11] = unstimulated and fructose stimulated hepatocytes
compound,measurement,setting,value
Oc1ncnc2[nH]ncc12 [allopurinol],IMP-stimulated triglyceride accumulation,HepG2 cells [1],partially blocked
same,rescue of the IMP-induced reduction in ECoAH,HepG2 cells [1],cannot fully rescue
"3-[2-(3-carboxy-4-bromo-5,6,7,8-tetrahydronaphthyl)ethyl]-3,6,7,8-tetrahydroimidazo[4,5-d][1,3]diazepin-8-ol [compound 24b]",Ki,AMP deaminase [2],2 nM
same,activity for adenosine deaminase,adenosine deaminase [3],minimal activity
same,concentration found to inhibit the enzyme,[4],0.5 mM
same,concentration found to inhibit,[5],0.5 µM
"OC[C@H]1O[C@@H](n2cnc3c2NC=NC[C@H]3O)C[C@@H]1O [pentostatin, deoxycoformycin]",rise in fasting serum triglycerides in response to fructose,"[6]; at two weeks, 0.1 mg/kg daily i.p.",significantly reduced the rise
same,rise in serum triglycerides in response to a bolus of fructose,"[6]; at two weeks, fructose 2 g/kg body weight by gavage",blocked the rise
same,"fatty liver (lipid deposits, Oil Red O stain)","[6]; fructose 20% in water two weeks, 0.1 mg/kg daily i.p.",largely prevented
same,inhibition of AMPD2 activity,[7]; in the presence of 2 mM AMP,64%
same,inhibition of AMPD2 activity,[7]; in the presence of 10 mM AMP,72%
same,AMP deaminase inhibition,AMP deaminase [8],block
OC[C@H]1C[C@@H](n2cnc3cncnc32)[C@H](O)[C@@H]1O [carbocyclic nebularine],AMP deaminase inhibition,AMP deaminase [8],block
same,adenosine deaminase inhibition,adenosine deaminase [9],block
"sAMPD2: silencing vector pSM2-AMPD2 with 22-base shRNAmir specific for human AMPD2, 5′-ACCTGGGAATCTGCTCATTGTT-3′; stable HepG2 clone #5 (the letters are possibly those of the target site)",triglyceride accumulation in HepG2 cells in response to fructose,AMPD2 mRNA; FIG. 6B,blocked
same,AMPD2 expression,"AMPD2 mRNA; control HepG2 cells, Western blot",reduced
same,enoyl CoA hydratase-1 (ECH-1),AMPD2 mRNA; control cells as well as fructose treated cells,stimulated
same,increased AMPD2 expression,"AMPD2 mRNA; fructose treated hepatocytes, Western blot",blocked
same,phosphorylated form of Acetyl CoA Carboxylase (pACC),"AMPD2 mRNA; unstimulated and fructose stimulated cells, Western blot",induced
same,phosphorylated AMPkinase (Thr172),AMPD2 mRNA; [11],upregulation
same,total AMPK,AMPD2 mRNA; [11],not altered
same,phosphorylated form of glycogen synthase (pGS),AMPD2 mRNA; unstimulated conditions and in the presence of fructose,induced
CN(C)C(=N)N=C(N)N [metformin],rise in intracellular triglycerides in response to fructose,HepG2 cells [10],prevented the rise
same,fall in enoyl CoA hydratase-1 (ECH-1) levels (defect in fat oxidation),HepG2 cells [10],reversed
OC[C@H]1O[C@@H](n2cnc3c2N=CNC[C@H]3O)[C@H](O)[C@@H]1O [Coformycin],AMP deaminase inhibition,AMP deaminase [8],inhibits
"NC(=O)c1ncn([C@@H]2O[C@H](CO)[C@@H](O)[C@H]2O)c1N [AICAR, aminoimidazole carboxamide ribonucleotide]",rise in intracellular triglycerides in response to fructose,HepG2 cells [10],prevented the rise
same,fall in enoyl CoA hydratase-1 (ECH-1) levels (defect in fat oxidation),HepG2 cells [10],reversed
same,AMPD2 activity,[7]; FIG. 8A,inhibits AMPD2 activity in a dose dependent manner
OC[C@H]1O[C@@H](c2n[nH]c3cncnc23)[C@H](O)[C@@H]1O [deaminoformycin],AMP deaminase inhibition,AMP deaminase [8],block
same,adenosine deaminase inhibition,adenosine deaminase [9],block
O=C(COP(=O)(O)O)[C@@H](O)[C@H](O)[C@H](O)CO [fructose-1-phosphate],AMPD2 activity,AMPD2,increases
